Reference: patent publication US6365550B1, “Flufenacet-based herbicidal compositions” (Bayer Aktiengesellschaft, priority 1999, dated 2002)

Key:
Assay in all cases: Post-emergence test/greenhouse
Type in all cases: in vivo
Conditions in all cases: scored after three weeks vs untreated control
Alopercurus myosuroides = system: Alopercurus myosuroides
Experimental: (§1) Commercial formulations of the active compounds involved were used. The active compound concentrations required for the experiments were prepared by dilution with water.
(§2) Test plants which have a height of 5 to 15 cm are sprayed with the active compound preparation in such a way that the amounts of active compound desired in each case are applied per unit area. The concentration of the spray mixture is chosen in such a way that the amounts of active compound desired in each case are applied in 500 l water/ha.
(§3) After three weeks, the degree of damage to the plants is scored in % damage in comparison with the development of the untreated control.
(§4) The figures denote the following:
(§5) 0%=no action (like untreated control)

Apera spica-venti = system: Apera spica-venti
Experimental: as §1, §2, §3, §4, §5

Chenopodium album = system: Chenopodium album
Experimental: as §1, §2, §3, §4, §5

Echinochloa crus-galli = system: Echinochloa crus-galli
Experimental: as §1, §2, §3, §4, §5

| SMILES | % damage Alopercurus myosuroides (Alopercurus myosuroides; application rate 60 g a.i./ha) [%] | % damage Apera spica-venti (Apera spica-venti; application rate 60 g a.i./ha) [%] | % damage Chenopodium album (Chenopodium album; application rate 60 g a.i./ha) [%] | % damage Echinochloa crus-galli (Echinochloa crus-galli; application rate 60 g a.i./ha) [%] | % damage Alopercurus myosuroides (Alopercurus myosuroides; application rate 30 g a.i./ha) [%] | % damage Apera spica-venti (Apera spica-venti; application rate 30 g a.i./ha) [%] | % damage Chenopodium album (Chenopodium album; application rate 30 g a.i./ha) [%] | % damage Echinochloa crus-galli (Echinochloa crus-galli; application rate 30 g a.i./ha) [%] |
| --- | --- | --- | --- | --- | --- | --- | --- | --- |
| CC(C)N(C(=O)COc1nnc(C(F)(F)F)s1)c1ccc(F)cc1 [(I), N-(4fluoro-phenyl)-N-(i-propyl)-2-(5-trifluoromethyl-1,3,4-thiadiazol-2-yl-oxy)-acetamide] | 60 | 60 | 0 | 60 |  |  |  |  |
| CC(C)N.O=C(O)CNCP(=O)(O)O [(II-1), N-phosphonomethyl-glycine i-propyl-ammonium salt] |  |  |  |  | 0 | 0 | 0 | 0 |
